In ChEMBL document CHEMBL4350974, “Synthesis and biological evaluation of methylpyrimidine-fused tricyclic diterpene analogs as novel oral anti-late-onset hypogonadism agents” (Eur J Med Chem, 2019):
The source made the active and inactive calls. No cut-off for these calls is given here.

Experiments:
[1] = Volume of distribution in Sprague-Dawley rat plasma at 5 mg/kg, iv up to 5 hrs by LC/MS analysis; type: ADME, organism-based
[2] = Toxicity in cyclophosphamide - induced Sprague-Dawley rat model of partial androgen deficiency assessed as effect on kidney at 50 to 100 mg/kg by HE staining based histopathological analysis; type: organism-based; settings: in vivo
[3] = AUC (0 to t) in Sprague-Dawley rat plasma at 50 mg/kg, po up to 12 hrs by LC/MS analysis; type: ADME, organism-based; parameters: dose 50 mg/kg, time < 12 hr, route oral
[4] = system: TM3; assay: Induction of testosterone production in mouse TM3 cells assessed as increase in StAR mRNA expression level after 24 hrs by qRT-PCR analysis; type: functional, cell-based
[5] = system: Rattus norvegicus; assay: Anti late-onset hypogonadism activity in cyclophosphamide-induced Sprague-Dawley rat model of partial androgen deficiency assessed as intratesticular testosterone level at 50 mg/kg, po qd administered for 4 weeks by ELISA (reference value: 137.99 +/- 19.27 nmol/L); type: functional
[6] = Cytotoxicity against human HAF cells assessed as reduction in cell viability measured after 24 hrs by sulforhodamine B assay; type: cell-based
[7] = system: Rattus norvegicus; assay: Effect on sperm production in cyclophosphamide - induced Sprague-Dawley rat model of partial androgen deficiency assessed as increase in SYCP3 protein expression at 50 to 100 mg/kg by immunohistochemical analysis; type: functional, organism-based
[8] = system: TM3; assay: Induction of testosterone production in mouse TM3 cells assessed as increase in 3beta-HSD protein expression level after 24 hrs by Western blot analysis; type: functional, cell-based
[9] = Initial plasma concentration in Sprague-Dawley rat plasma at 5 mg/kg, iv by LC/MS analysis; type: ADME, organism-based
[10] = system: Rattus norvegicus; assay: Anti late-onset hypogonadism activity in cyclophosphamide-induced Sprague-Dawley rat model of partial androgen deficiency assessed as weight of testis at 50 mg/kg, po qd administered for 4 weeks (reference value: 1.47 +/- 0.13 g); type: functional
[11] = Half-life in Sprague-Dawley rat plasma at 5 mg/kg, iv up to 5 hrs by LC/MS analysis; type: ADME, organism-based
[12] = system: Rattus norvegicus; assay: Anti late-onset hypogonadism activity in cyclophosphamide-induced Sprague-Dawley rat model of partial androgen deficiency assessed as inhibition of Leydig cells apoptosis at 50 to 100 mg/kg, po qd administered for 4 weeks by DAPI staining based TUNEL assay; type: functional, organism-based
[13] = system: TM3; assay: Induction of autophagy in mouse TM3 cells assessed as increase in LC3 protein level at 10 to 100 uM after 24 hrs by DAPI staining based confocal microscopic method; type: functional, cell-based
[14] = AUC (0 to t) in Sprague-Dawley rat plasma at 5 mg/kg, iv up to 5 hrs by LC/MS analysis; type: ADME, organism-based; parameters: time < 5 hr, dose 5 mg/kg, route intravenous
[15] = Cytotoxicity against mouse TM3 cells assessed as reduction in cell viability measured after 24 hrs by sulforhodamine B assay; type: cell-based
[16] = Oral bioavailability in Sprague-Dawley rat at 50 mg/kg by LC/MS analysis; type: ADME, organism-based; settings: in vivo
[17] = system: Rattus norvegicus; assay: Anti late-onset hypogonadism activity in cyclophosphamide-induced Sprague-Dawley rat model of partial androgen deficiency assessed as increase in free testosterone level at 50 to 100 mg/kg, po qd administered for 4 weeks and measured every 2 weeks by ELISA; type: functional, organism-based
[18] = organism: Rattus norvegicus; assay: Anti late-onset hypogonadism activity in cyclophosphamide-induced Sprague-Dawley rat model of partial androgen deficiency assessed as induction of autophagy in Leydig cells immunohistochemical analysis; type: functional, organism-based
[19] = Toxicity in cyclophosphamide - induced Sprague-Dawley rat model of partial androgen deficiency assessed as effect on spleen at 50 to 100 mg/kg by HE staining based histopathological analysis; type: organism-based; settings: in vivo
[20] = Cytotoxicity against human L02 cells assessed as reduction in cell viability measured after 24 hrs by sulforhodamine B assay; type: cell-based

SMILES: CNC(=O)c1cc2c(cc1OC)[C@@]1(C)Cc3cnc(C)nc3C(C)(C)C1CC2 (mixture of isomers)
- Vd [1]: 103 L/kg
- Activity [2]: Non-Toxic
- AUC(0-t) at 12 h [3]: 3050 ng·h/mL
- Activity [4]: Dose-dependent effect
- Activity [5]: 180.24 nmol/L
- CC50 at 24 h [6]: > 200 µM
- Activity [7]: Active
- Activity [8]: Dose-dependent effect
- C0 [9]: 279 ng/mL
- Activity [10]: 1.54 g
- half-life [11]: 7.59 h
- inhibition [12]: Active
- Activity [13]: Active
- AUC(0-t) at 5 h [14]: 453 ng·h/mL
- CC50 at 24 h [15]: > 200 µM
- bioavailability [16]: 57%
- Activity [17]: Active
- Activity [18]: Active
- Activity [19]: Non-Toxic
- CC50 at 24 h [20]: > 200 µM
